Laboratory results taken from patent US10906933B2, “Coupled peptide chain for dissolving poorly soluble polypeptides and application thereof for separation and purification in liquid chromatography” (Spec-Chem Industry Inc., priority 2015, dated 2021).

Assay: Dissolving capacity evaluation of peptide chains at 2 mg/mL in solvents
Assay type: physicochemical
Conditions: for Dissolving capacity, ACN:H2O (1:3): 2 mg/mL in ACN:H2O (1:3) solution in HPLC; for Dissolving capacity, DMF: 2 mg/mL in DMF solution; for Dissolving capacity, DMSO: 2 mg/mL in DMSO solution
Description: This test evaluated the dissolving capacity of each group of peptide chain at 2 mg/mL in a DMF solution, a DMSO solution, an ACN:H2O (1:3) solution in HPLC, and an LiOH saturated solution, respectively. The poorly soluble polypeptide chain-linker arm-hydrophilic polypeptide chain in embodiments 1 and 2 were taken as Groups 1 and 2, respectively, and a separate poorly soluble polypeptide chain […] (SEQ ID NO: 1) was taken as a control group, as shown in Table 3: […]

[1] = listed as ILVLLIII (SEQ ID NO: 1) 4-HMBA-DDDDDEEKEEEE (SEQ ID NO: 2)

Dissolving capacity, ACN:H2O (1:3) [1] | Dissolving capacity, DMF [1] | Dissolving capacity, DMSO [1] | Sequence | Dissolving capacity, ACN:H2O (1:3) | Dissolving capacity, DMF | Dissolving capacity, DMSO | Dissolving capacity, LiOH saturated solution (2 mg/mL in LiOH saturated solution, listed as second group)
– | – | – | ILVLLIII (SEQ ID NO: 1) (Poorly soluble polypeptide) [Group 3, the target peptide, reference compound] | very cloudy with solids precipitating | very cloudy with solids precipitating | very cloudy with solids precipitating | –
clear with no solids precipitating | clear with no solids precipitating | clear with no solids precipitating | ILVLLIII (SEQ ID NO: 1)-HMBA-DDDDDEEKEEEE (SEQ ID NO: 2) [Group 1] | – | – | – | –
– | – | – | ILVLLIII (SEQ ID NO: 1)-HPA-RRRRREDKKKKK (SEQ ID NO: 3) [Group 2] | completely dissolved | solids still precipitated | solids still precipitated | obviously not better than that of the first group
